Assay results reported in ChEMBL document CHEMBL1134814, “New anti-MRSA cephalosporins with a basic aminopyridine at the C-7 position” (2001).
≈ marks a conversion by molar mass, not a printed value.

tested on: Staphylococcus aureus; assay: In vitro inhibition of growth of methicillin-resistant Staphylococcus aureus MRSA ATCC 335893 (clinical isolates); format: functional

With `NCCSc1nccc(SC2=C(C(=O)O)N3C(=O)[C@@H](NC(=O)/C(=N\O)c4cccc(N)n4)[C@H]3SC2)n1` as the compound, how does the MIC read?
Its MIC is 8 µg/mL (≈ 14.6 µM).

With `NCCSCc1nsc(SC2=C(C(=O)O)N3C(=O)[C@@H](NC(=O)/C(=N\O)c4cccc(N)n4)[C@H]3SC2)n1` as the compound, how does the MIC read?
The MIC was 2 µg/mL (≈ 3.52 µM).

`NCCSc1nsc(SC2=C(C(=O)O)N3C(=O)[C@@H](NC(=O)/C(=N\O)c4cccc(N)n4)[C@H]3SC2)n1` was tested. Which MIC did it give?
The MIC was 2 µg/mL (≈ 3.61 µM).

`NCCSCc1nnsc1SC1=C(C(=O)O)N2C(=O)[C@@H](NC(=O)/C(=N\O)c3csc(N)n3)[C@H]2SC1` was tested. Which MIC did it give?
The MIC was 1 µg/mL (≈ 1.74 µM).

Which MIC does the source give for `NCCCSc1nsc(SC2=C(C(=O)O)N3C(=O)[C@@H](NC(=O)/C(=N\O)c4cccc(N)n4)[C@H]3SC2)n1` here?
Its MIC is 2 µg/mL (≈ 3.52 µM).

How did the MIC turn out when `NCCSc1nccnc1SC1=C(C(=O)O)N2C(=O)[C@@H](NC(=O)/C(=N\O)c3cccc(N)n3)[C@H]2SC1` was run?
Its MIC is 2 µg/mL (≈ 3.65 µM).

For `COc1nc(CSCCN)c(SC2=C(C(=O)O)N3C(=O)[C@@H](NC(=O)/C(=N\O)c4cccc(N)n4)[C@H]3SC2)s1`, which MIC is on record?
The MIC was 4 µg/mL (≈ 6.69 µM).

How did the MIC turn out when `NCCSCc1nnsc1SC1=C(C(=O)O)N2C(=O)[C@@H](NC(=O)/C(=N\O)c3cccc(N)n3)[C@H]2SC1` was run?
Its MIC is 1 µg/mL (≈ 1.76 µM).

For `NCCSCc1cnccc1SC1=C(C(=O)O)N2C(=O)[C@@H](NC(=O)/C(=N\O)c3cccc(N)n3)[C@H]2SC1`, which MIC is on record?
The MIC was 2 µg/mL (≈ 3.56 µM).

With `NCCSCc1nc(Cl)sc1SC1=C(C(=O)O)N2C(=O)[C@@H](NC(=O)/C(=N\O)c3cccc(N)n3)[C@H]2SC1` as the compound, how does the MIC read?
The MIC was 1 µg/mL (≈ 1.66 µM).

Which MIC does the source give for `NCCSCc1cnccc1SC1=C(C(=O)O)N2C(=O)[C@@H](NC(=O)/C(=N\O)c3nc(N)sc3Cl)[C@H]2SC1` here?
Its MIC is 1 µg/mL (≈ 1.66 µM).

How did the MIC turn out when `NCCSCc1csc(SC2=C(C(=O)O)N3C(=O)[C@@H](NC(=O)/C(=N\O)c4cccc(N)n4)[C@H]3SC2)n1` was run?
Its MIC is 1 µg/mL (≈ 1.76 µM).

`C[C@@H](O)[C@H]1C(=O)N2C(C(=O)O)=C(SCCNC=N)C[C@H]12` [IMIPENEM ANHYDROUS] was tested. Which MIC did it give?
Its MIC is 32 µg/mL (≈ 107 µM).

Which MIC does the source give for `NCCSCc1nc(SCCN)sc1SC1=C(C(=O)O)N2C(=O)[C@@H](NC(=O)/C(=N\O)c3cccc(N)n3)[C@H]2SC1` here?
The MIC was 1 µg/mL (≈ 1.56 µM).

How did the MIC turn out when `NCCSCc1ccccc1SC1=C(C(=O)O)N2C(=O)[C@@H](NC(=O)/C(=N\O)c3cccc(N)n3)[C@H]2SC1` was run?
The MIC was 1 µg/mL (≈ 1.78 µM).

How did the MIC turn out when `NCCSc1cncc(SC2=C(C(=O)O)N3C(=O)[C@@H](NC(=O)/C(=N\O)c4cccc(N)n4)[C@H]3SC2)n1` was run?
Its MIC is 8 µg/mL (≈ 14.6 µM).

`NCCSCc1ncsc1SC1=C(C(=O)O)N2C(=O)[C@@H](NC(=O)/C(=N\O)c3cccc(N)n3)[C@H]2SC1` was tested. Which MIC did it give?
The MIC was 1 µg/mL (≈ 1.76 µM).

How did the MIC turn out when `NCCSCc1nc(N)sc1SC1=C(C(=O)O)N2C(=O)[C@@H](NC(=O)/C(=N\O)c3cccc(N)n3)[C@H]2SC1` was run?
Its MIC is 2 µg/mL (≈ 3.43 µM).

`Cc1nc(CSCCN)c(SC2=C(C(=O)O)N3C(=O)[C@@H](NC(=O)/C(=N\O)c4cccc(N)n4)[C@H]3SC2)s1` was tested. Which MIC did it give?
The MIC was 2 µg/mL (≈ 3.44 µM).

tested on: Staphylococcus aureus; assay: In vitro inhibition of growth of methicillin-resistant Staphylococcus aureus MRSA 76 (clinical isolates); format: functional

How did the MIC turn out when `NCCSc1nccc(SC2=C(C(=O)O)N3C(=O)[C@@H](NC(=O)/C(=N\O)c4cccc(N)n4)[C@H]3SC2)n1` was run?
The MIC was 16 µg/mL (≈ 29.2 µM).

For `NCCSCc1nsc(SC2=C(C(=O)O)N3C(=O)[C@@H](NC(=O)/C(=N\O)c4cccc(N)n4)[C@H]3SC2)n1`, which MIC is on record?
The MIC was 4 µg/mL (≈ 7.03 µM).

With `NCCSc1nsc(SC2=C(C(=O)O)N3C(=O)[C@@H](NC(=O)/C(=N\O)c4cccc(N)n4)[C@H]3SC2)n1` as the compound, how does the MIC read?
Its MIC is 2 µg/mL (≈ 3.61 µM).

For `NCCSCc1nnsc1SC1=C(C(=O)O)N2C(=O)[C@@H](NC(=O)/C(=N\O)c3csc(N)n3)[C@H]2SC1`, which MIC is on record?
Its MIC is 1 µg/mL (≈ 1.74 µM).

Which MIC does the source give for `NCCCSc1nsc(SC2=C(C(=O)O)N3C(=O)[C@@H](NC(=O)/C(=N\O)c4cccc(N)n4)[C@H]3SC2)n1` here?
The MIC was 2 µg/mL (≈ 3.52 µM).

Which MIC does the source give for `NCCSc1nccnc1SC1=C(C(=O)O)N2C(=O)[C@@H](NC(=O)/C(=N\O)c3cccc(N)n3)[C@H]2SC1` here?
Its MIC is 2 µg/mL (≈ 3.65 µM).

With `COc1nc(CSCCN)c(SC2=C(C(=O)O)N3C(=O)[C@@H](NC(=O)/C(=N\O)c4cccc(N)n4)[C@H]3SC2)s1` as the compound, how does the MIC read?
The MIC was 4 µg/mL (≈ 6.69 µM).

For `NCCSCc1nnsc1SC1=C(C(=O)O)N2C(=O)[C@@H](NC(=O)/C(=N\O)c3cccc(N)n3)[C@H]2SC1`, which MIC is on record?
Its MIC is 1 µg/mL (≈ 1.76 µM).

`NCCSCc1cnccc1SC1=C(C(=O)O)N2C(=O)[C@@H](NC(=O)/C(=N\O)c3cccc(N)n3)[C@H]2SC1` was tested. Which MIC did it give?
The MIC was 1 µg/mL (≈ 1.78 µM).

With `NCCSCc1nc(Cl)sc1SC1=C(C(=O)O)N2C(=O)[C@@H](NC(=O)/C(=N\O)c3cccc(N)n3)[C@H]2SC1` as the compound, how does the MIC read?
Its MIC is 2 µg/mL (≈ 3.32 µM).

`NCCSCc1cnccc1SC1=C(C(=O)O)N2C(=O)[C@@H](NC(=O)/C(=N\O)c3nc(N)sc3Cl)[C@H]2SC1` was tested. Which MIC did it give?
The MIC was 1 µg/mL (≈ 1.66 µM).

How did the MIC turn out when `NCCSCc1csc(SC2=C(C(=O)O)N3C(=O)[C@@H](NC(=O)/C(=N\O)c4cccc(N)n4)[C@H]3SC2)n1` was run?
The MIC was 2 µg/mL (≈ 3.52 µM).

For `C[C@@H](O)[C@H]1C(=O)N2C(C(=O)O)=C(SCCNC=N)C[C@H]12` [IMIPENEM ANHYDROUS], which MIC is on record?
Its MIC is 32 µg/mL (≈ 107 µM).

For `NCCSCc1nc(SCCN)sc1SC1=C(C(=O)O)N2C(=O)[C@@H](NC(=O)/C(=N\O)c3cccc(N)n3)[C@H]2SC1`, which MIC is on record?
The MIC was 1 µg/mL (≈ 1.56 µM).

For `NCCSCc1ccccc1SC1=C(C(=O)O)N2C(=O)[C@@H](NC(=O)/C(=N\O)c3cccc(N)n3)[C@H]2SC1`, which MIC is on record?
The MIC was 1 µg/mL (≈ 1.78 µM).

For `NCCSc1cncc(SC2=C(C(=O)O)N3C(=O)[C@@H](NC(=O)/C(=N\O)c4cccc(N)n4)[C@H]3SC2)n1`, which MIC is on record?
The MIC was 16 µg/mL (≈ 29.2 µM).

How did the MIC turn out when `NCCSCc1ncsc1SC1=C(C(=O)O)N2C(=O)[C@@H](NC(=O)/C(=N\O)c3cccc(N)n3)[C@H]2SC1` was run?
The MIC was 2 µg/mL (≈ 3.52 µM).

How did the MIC turn out when `NCCSCc1nc(N)sc1SC1=C(C(=O)O)N2C(=O)[C@@H](NC(=O)/C(=N\O)c3cccc(N)n3)[C@H]2SC1` was run?
The MIC was 8 µg/mL (≈ 13.7 µM).

Which MIC does the source give for `Cc1nc(CSCCN)c(SC2=C(C(=O)O)N3C(=O)[C@@H](NC(=O)/C(=N\O)c4cccc(N)n4)[C@H]3SC2)s1` here?
Its MIC is 2 µg/mL (≈ 3.44 µM).

tested on: Staphylococcus aureus; assay: In vitro inhibition of growth of methicillin-resistant Staphylococcus aureus MRSA spain 356 (clinical isolates); format: functional

`NCCSc1nccc(SC2=C(C(=O)O)N3C(=O)[C@@H](NC(=O)/C(=N\O)c4cccc(N)n4)[C@H]3SC2)n1` was tested. Which MIC did it give?
The MIC was 16 µg/mL (≈ 29.2 µM).

How did the MIC turn out when `NCCSCc1nsc(SC2=C(C(=O)O)N3C(=O)[C@@H](NC(=O)/C(=N\O)c4cccc(N)n4)[C@H]3SC2)n1` was run?
The MIC was 4 µg/mL (≈ 7.03 µM).

Which MIC does the source give for `NCCSc1nsc(SC2=C(C(=O)O)N3C(=O)[C@@H](NC(=O)/C(=N\O)c4cccc(N)n4)[C@H]3SC2)n1` here?
Its MIC is 2 µg/mL (≈ 3.61 µM).

Which MIC does the source give for `NCCSCc1nnsc1SC1=C(C(=O)O)N2C(=O)[C@@H](NC(=O)/C(=N\O)c3csc(N)n3)[C@H]2SC1` here?
Its MIC is 1 µg/mL (≈ 1.74 µM).

`NCCCSc1nsc(SC2=C(C(=O)O)N3C(=O)[C@@H](NC(=O)/C(=N\O)c4cccc(N)n4)[C@H]3SC2)n1` was tested. Which MIC did it give?
The MIC was 2 µg/mL (≈ 3.52 µM).

Which MIC does the source give for `NCCSc1nccnc1SC1=C(C(=O)O)N2C(=O)[C@@H](NC(=O)/C(=N\O)c3cccc(N)n3)[C@H]2SC1` here?
The MIC was 2 µg/mL (≈ 3.65 µM).

`COc1nc(CSCCN)c(SC2=C(C(=O)O)N3C(=O)[C@@H](NC(=O)/C(=N\O)c4cccc(N)n4)[C@H]3SC2)s1` was tested. Which MIC did it give?
Its MIC is 4 µg/mL (≈ 6.69 µM).

For `NCCSCc1nnsc1SC1=C(C(=O)O)N2C(=O)[C@@H](NC(=O)/C(=N\O)c3cccc(N)n3)[C@H]2SC1`, which MIC is on record?
Its MIC is 1 µg/mL (≈ 1.76 µM).

`NCCSCc1cnccc1SC1=C(C(=O)O)N2C(=O)[C@@H](NC(=O)/C(=N\O)c3cccc(N)n3)[C@H]2SC1` was tested. Which MIC did it give?
The MIC was 2 µg/mL (≈ 3.56 µM).

How did the MIC turn out when `NCCSCc1nc(Cl)sc1SC1=C(C(=O)O)N2C(=O)[C@@H](NC(=O)/C(=N\O)c3cccc(N)n3)[C@H]2SC1` was run?
The MIC was 1 µg/mL (≈ 1.66 µM).

`NCCSCc1cnccc1SC1=C(C(=O)O)N2C(=O)[C@@H](NC(=O)/C(=N\O)c3nc(N)sc3Cl)[C@H]2SC1` was tested. Which MIC did it give?
The MIC was 1 µg/mL (≈ 1.66 µM).

`NCCSCc1csc(SC2=C(C(=O)O)N3C(=O)[C@@H](NC(=O)/C(=N\O)c4cccc(N)n4)[C@H]3SC2)n1` was tested. Which MIC did it give?
Its MIC is 2 µg/mL (≈ 3.52 µM).

How did the MIC turn out when `C[C@@H](O)[C@H]1C(=O)N2C(C(=O)O)=C(SCCNC=N)C[C@H]12` [IMIPENEM ANHYDROUS] was run?
The MIC was 32 µg/mL (≈ 107 µM).

With `NCCSCc1nc(SCCN)sc1SC1=C(C(=O)O)N2C(=O)[C@@H](NC(=O)/C(=N\O)c3cccc(N)n3)[C@H]2SC1` as the compound, how does the MIC read?
Its MIC is 1 µg/mL (≈ 1.56 µM).

`NCCSCc1ccccc1SC1=C(C(=O)O)N2C(=O)[C@@H](NC(=O)/C(=N\O)c3cccc(N)n3)[C@H]2SC1` was tested. Which MIC did it give?
Its MIC is 1 µg/mL (≈ 1.78 µM).

For `NCCSc1cncc(SC2=C(C(=O)O)N3C(=O)[C@@H](NC(=O)/C(=N\O)c4cccc(N)n4)[C@H]3SC2)n1`, which MIC is on record?
Its MIC is 16 µg/mL (≈ 29.2 µM).

`NCCSCc1ncsc1SC1=C(C(=O)O)N2C(=O)[C@@H](NC(=O)/C(=N\O)c3cccc(N)n3)[C@H]2SC1` was tested. Which MIC did it give?
The MIC was 2 µg/mL (≈ 3.52 µM).

`NCCSCc1nc(N)sc1SC1=C(C(=O)O)N2C(=O)[C@@H](NC(=O)/C(=N\O)c3cccc(N)n3)[C@H]2SC1` was tested. Which MIC did it give?
Its MIC is 4 µg/mL (≈ 6.86 µM).

Which MIC does the source give for `Cc1nc(CSCCN)c(SC2=C(C(=O)O)N3C(=O)[C@@H](NC(=O)/C(=N\O)c4cccc(N)n4)[C@H]3SC2)s1` here?
The MIC was 2 µg/mL (≈ 3.44 µM).
